In the oligonucleotide strings, read from the 5' end, every base follows the letter of its sugar. An asterisk marks phosphorothioate; unmarked linkages are phosphodiester. Other units and linkages are bracketed, terminal groups are in braces. A string of capitals states the bases alone. m = 2'-O-methyl

The target of the first series is T1, TLR8 (Homo sapiens, UniProt Q9NR97).
T1 sequence (Q9NR97 27-1041): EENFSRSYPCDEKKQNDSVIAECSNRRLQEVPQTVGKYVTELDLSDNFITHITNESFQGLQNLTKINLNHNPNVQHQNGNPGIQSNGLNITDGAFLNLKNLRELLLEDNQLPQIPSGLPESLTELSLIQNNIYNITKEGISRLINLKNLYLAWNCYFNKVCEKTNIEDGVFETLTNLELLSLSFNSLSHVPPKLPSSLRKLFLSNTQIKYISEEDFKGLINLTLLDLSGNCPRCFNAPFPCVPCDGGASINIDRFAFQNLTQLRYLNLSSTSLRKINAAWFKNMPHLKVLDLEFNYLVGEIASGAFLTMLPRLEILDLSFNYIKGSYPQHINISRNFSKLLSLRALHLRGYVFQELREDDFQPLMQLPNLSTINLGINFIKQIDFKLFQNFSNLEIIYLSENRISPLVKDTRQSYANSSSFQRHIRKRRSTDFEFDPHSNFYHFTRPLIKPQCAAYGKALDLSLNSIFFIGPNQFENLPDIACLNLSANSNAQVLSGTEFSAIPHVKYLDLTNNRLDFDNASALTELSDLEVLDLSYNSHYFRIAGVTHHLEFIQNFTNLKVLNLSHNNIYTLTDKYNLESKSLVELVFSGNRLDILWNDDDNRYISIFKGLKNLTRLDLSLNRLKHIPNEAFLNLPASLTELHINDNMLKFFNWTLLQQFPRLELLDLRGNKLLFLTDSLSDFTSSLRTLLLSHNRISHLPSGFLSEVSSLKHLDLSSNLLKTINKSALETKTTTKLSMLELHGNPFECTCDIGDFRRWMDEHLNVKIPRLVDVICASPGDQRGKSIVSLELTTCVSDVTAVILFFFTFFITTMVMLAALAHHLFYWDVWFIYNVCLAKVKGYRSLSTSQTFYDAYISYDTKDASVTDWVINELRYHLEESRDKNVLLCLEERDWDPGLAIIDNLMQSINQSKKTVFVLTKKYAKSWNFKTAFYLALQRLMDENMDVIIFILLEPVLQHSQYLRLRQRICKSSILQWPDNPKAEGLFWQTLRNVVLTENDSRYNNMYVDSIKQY
Briefly: R848-driven IP-10 production in THP-1 cells (TLR8).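 Further: IP-10 by ELISA in supernatant after 7 h R848 stimulation.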 The series is classed as cell-based. Also on record: expressed in transfected cells. The settings on record: 3mer 2'OMe ASO at 1 uM; raw values, Ligand only = 355.752, NT = 134.831.
With “mGmUmU (mG*mU*mU) [GUU, 3-mer 2′OMe PS oligo]”, the “TLR8 1 uM” value came out at 166.278.
Take “mUmCmA (mU*mC*mA) [UCA, 3-mer 2′OMe PS oligo]”: the “TLR8 1 uM” value stood at 1049.345.
The same measure, in the same setting: the value for mUmCmG (antisense mU*mC*mG) [660-3b] was 746.272; that for “mUmGmA (mU*mG*mA) [UGA, 3-mer 2′OMe PS oligo]” was 267.234; that for “mUmGmG (mU*mG*mG) [UGG, 3-mer 2′OMe PS oligo]” was 527.575.

A further series has as its target T1, TLR8. Briefly: HEK-TLR8 NF-κB-luciferase reporter, R848 or Motolimod stimulation (potentiation or inhibition). The series is classed as cell-based. Also on record: expressed in transfected cells; host or cells: 293XLhTLR8 (HEK293). As to conditions: 3mer 2'OMe ASO at 5 uM; HEK-TLR8; value relative to Ligand only = 1.000, NT = 0.000.
For “mGmUmU (mG*mU*mU) [GUU, 3-mer 2′OMe PS oligo]”, the “TLR8 HEK 5 uM” value is reported as 0.668.
On the same count and under the same terms, the value for “mUmCmA (mU*mC*mA) [UCA, 3-mer 2′OMe PS oligo]” was 1.115.
Still for that read-out and setting: the value for mUmCmG (antisense mU*mC*mG) [660-3b] was 2.839; that for “mUmGmA (mU*mG*mA) [UGA, 3-mer 2′OMe PS oligo]” was 1.331.
On the same count and under the same terms, the value for “mUmGmG (mU*mG*mG) [UGG, 3-mer 2′OMe PS oligo]” was 1.860.

Still in this series, the particulars now being: HEK-TLR8; 5 μM naked 3-mer; Motolimod.
With “mGmUmU (mG*mU*mU) [GUU, 3-mer 2′OMe PS oligo]”, the “effect of 3-mer 2′OMe PS oligos on TLR8 sensing in HEK-TLR8 (in words)” value is given as “robustly inhibitory”.
Still for that read-out and setting: the value for mUmCmG (antisense mU*mC*mG) [660-3b] was “potentiated the sensing of R848”; that for “mUmGmG (mU*mG*mG) [UGG, 3-mer 2′OMe PS oligo]” was “potentiated the sensing of R848”.

(Values after patent publication US20240384268A1, “Oligonucleotides” (Hudson Institute of Medical Research, priority 2021, published 2024).)
